In patent US10968232B2 (Merck Sharp & Dohme Corp., priority 2016, dated 2021):

Biological target: T1, human GPR40 (Homo sapiens, UniProt O14842)
T1 construct: expressed in transfected cells
Test: Inositol Phosphate Turnover (IP1) Assay
Type: cell-based
Conditions: HEK cells stably expressing human GPR40; CisBio IP-One kit; 60 minutes at 37 degrees; read-out: Human IP1 EC50
How it was run: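 HEK cells stably expressing GPR40, plated 16 h, then exposed to compound in stimulation buffer for 60 min at 37 °C. IP1 accumulation read by HTRF IP-One detection after 60 min at RT.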

T1 sequence (O14842 whole entry): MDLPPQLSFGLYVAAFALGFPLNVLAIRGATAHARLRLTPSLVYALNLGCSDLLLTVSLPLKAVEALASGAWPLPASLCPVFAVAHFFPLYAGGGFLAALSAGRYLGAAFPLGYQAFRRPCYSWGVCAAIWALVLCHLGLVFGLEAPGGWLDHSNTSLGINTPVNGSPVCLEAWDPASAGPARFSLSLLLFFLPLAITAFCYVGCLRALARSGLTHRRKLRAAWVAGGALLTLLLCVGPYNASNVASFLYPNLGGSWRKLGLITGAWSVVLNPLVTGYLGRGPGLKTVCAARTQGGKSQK

Row | Structure (SMILES) | EC50 [nM]
1 | Cc1nocc1-c1ccc(OC(F)(F)F)c(C(C)N2CCC3(CCc4ccc([C@H](C5CC5)[C@H](C)C(=O)O)cc4O3)CC2)c1 (single isomer, unassigned) [Example 116, (2S,3R)-3-cyclopropyl-2-methyl-3-(1′-((R or S)-1-(5-(3-methylisoxazol-4-yl)-2-(trifluoromethoxy)phenyl)eth-yl)spiro[chroman-2,4′-piperidin]-7-yl)propanoic acid] | 323
2 | C[C@H](C(=O)O)[C@H](c1ccc2c(c1)OC1(CC2)CC(N(C)[C@@H](C)c2cc(C(F)(F)F)ccc2C(F)(F)F)C1)C1CC1 (stereo partly drawn) [Example 100, (2S,3R)-3-(3′-(((S)-1-(2,5-bis(trifluoro-methyl)phenyl)ethyl)(meth-yl)amino)spiro[chro-man-2,1′-cyclobutan]-7-yl)-3-cyclopropyl-2-methylpropanic acid] | 4.19
3 | CC(c1cc(Cl)ccc1OCC(F)(F)F)N1CCC2(CCc3ccc([C@H](C4CC4)[C@H](C)C(=O)O)cc3O2)CC1 (single isomer, unassigned) [Example 62, (2S,3R)-3-(1′-((R or S)-1-(5-chloro-2-(2,2,2-trifluoroethoxy)phenyl)ethyl)spiro [chroman-2,4′-piperidin]-7-yl)-3-cyclopropyl-2-methylpropanoic Acid] | 386
4 | C[C@H](C(=O)O)[C@H](c1ccc2c(c1)OC1(CC2)CC(N(C)Cc2cc(C(F)(F)F)ccc2C(F)(F)F)C1)C1CC1 (single isomer, unassigned) [Example 98] | 1.62
5 | Cc1nc(C(F)(F)F)c(CN2CCC3(CCc4ccc([C@H](C5CC5)[C@H](C)C(=O)O)cc4O3)CC2)s1 [Example 53, (2S,3R)-3-cyclopropyl-2-methyl-3-(1′-((2-methyl-4-(trifluoromethyl)thiazol-5-yl)methyl)spiro[chroman-2,4′-piperidin]-7-yl)propanoic Acid] | 107
6 | C[C@H](C(=O)O)[C@H](c1ccc2c(c1)OC1(CC2)CCN([C@@H](C)c2nccnc2C(F)(F)F)CC1)C1CC1 (mixture of isomers) [Example 125, (2S,3R)-3-cyclopropyl-2-methyl-3-(1′-((RS)-1-(3-(trifluoromethyl)pyrazin-2-yl)ethyl)spiro[chroman-2,4′-piperidin]-7-yl)propanoic Acid] | 415
7 | CCCn1cc(-c2ccc(OC(F)(F)F)c(C(C)N3CCC4(CCc5ccc([C@H](C6CC6)[C@H](C)C(=O)O)cc5O4)CC3)c2)cn1 (single isomer, unassigned) [Example 113, sodium (2S,3R)-3-cyclopropyl-2-methyl-3-(1′-S or R)-1-(5-(1-propyl-1H-pyrazol-4-yl)-2-(trifluoromethoxy)phenyl)eth-yl)spiro[chroman-2,4′-piperidin]-7-yl)propanoate] | 579
8 | C[C@H](C(=O)O)[C@H](c1ccc2c(c1)OC1(CC2)CC(N(C)c2ncccc2C(F)(F)F)C1)C1CC1 (stereo partly drawn) [Example 89, (2S,3R)-3-cyclopropyl-2-methyl-3-(3′-(methyl(3-(trifluoromethyl)pyridin-2-yl)amino)spiro[chroman-2,1′-cyclobutan]-7-yl)propanoic Acid] | 13.1
9 | C[C@H](C(=O)O)[C@H](c1ccc2c(c1)OC1(CCCN([C@H](C)c3cc(C(F)(F)F)ccc3C(F)(F)F)C1)CC2)C1CC1 (single isomer, unassigned) [Example 74, (2S,3R)-3-((S or R)-1′-((R)-1-(2,5-bis (trifluoromethyl)phenyl)-ethyl)spiro[chroman-2,3′-piperidin]-7-yl)-3-cyclopropyl-2-methylpropanoic acid] | 18.3
10 | C[C@H](C(=O)O)[C@H](c1ccc2c(c1)OC1(CC2)CCN(Cc2cc(C#N)ccc2C(F)(F)F)CC1)C1CC1 [Example 60, (2S,3R)-3-(1′-(5-cyano-2-(trifluoromethyl)benzyl)spiro[chroman-2,4′-piperidin]-7-yl)-3-cyclopropyl-2-methylpropanoic Acid] | 17.3
11 | C[C@H](C(=O)O)[C@H](c1ccc2c(c1)OC1(CC2)CC(Nc2ncccc2C(F)(F)F)C1)C1CC1 (single isomer, unassigned) [Example 88] | 57
12 | CC(c1cc(C(F)(F)F)cc(C(F)(F)F)c1)N1CCC2(CCc3ccc([C@H](C4CC4)[C@H](C)C(=O)O)cc3O2)CC1 (stereo partly drawn) [Example 54, (2S,3R)-3-(1′-(1-(3,5-bis(trifluoromethyl)phenyl)ethyl)spiro[chroman-2,4′-piperidin]-7-yl)-3-cyclopropyl-2-methylpropanoic Acid] | 6.47
13 | CC(c1cc(F)cc(F)c1Cl)N1CCC2(CCc3ccc([C@H](C4CC4)[C@H](C)C(=O)O)c(F)c3O2)CC1 (single isomer, unassigned) [Example 17, (2S,3R)-3-(1′-((S or R)-1-(2-chloro-3,5-difluorophenyl)ethyl)-8-fluorospiro-[chroman-2,4′-piperidin]-7-yl)-3-cyclopropyl-2-methylpropanoic Acid] | 37.3

The remaining compounds from weak to strong by EC50, led by results:

Row | EC50 [nM] | Structure (SMILES)
14 | 186 | C[C@H](C(=O)O)[C@H](c1ccc2c(c1)OC1(CCCN([C@H](C)c3cc(C(F)(F)F)ccc3C(F)(F)F)C1)CC2)C1CC1 (single isomer, unassigned) [Example 73, (2S,3R)-3-((R or S)-1′-((R)-1-(2,5-bis(trifluoromethyl)phenyl)ethyl)spiro-[chroman-2,3′-piperidin]-7-yl)-3-cyclopropyl-2-methylpropanoic Acid]
15 | 167 | C[C@H](C(=O)O)[C@H](c1ccc2c(c1)OC1(CC2)CCN(c2ccnc(C(F)(F)F)c2)CC1)C1CC1 [Example 40, (2S,3R)-3-cyclopropyl-2-methyl-3-(1′-(2-(trifluoromethyl)pyridin-4-yl)spiro-[chroman-2,4′-piperidin]-7-yl)propanoic Acid]
16 | 118 | C[C@H](C(=O)O)[C@H](c1ccc2c(c1)OC1(CC2)CCN(Cc2cc(Cl)cc3c2OC(C)(C)C3)CC1)C1CC1 [Example 61, sodium (2S3R)-3-(1′-((5-chloro-2,2-dimethyl-2,3-dihydrobenzofuran-7-yl)methyl)-spiro[chroman-2,4′-piperidin]-7-yl)-3-cyclopropyl-2-methylpropanoate]
17 | 49.5 | C[C@H](C(=O)O)[C@H](c1ccc2c(c1)OC1(CC2)CCN(Cc2cc(C(F)(F)F)ccc2F)CC1)C1CC1 [Example 27, (2S,3R)-3-cyclopropyl-3-(1′-(2-fluoro-5-(trifluoromethyl)benzyl)spiro-[chroman-2,4′-piperidin]-7-yl)-2-methylpropanoic Acid]
18 | 30.4 | CC(c1cc(C#N)ccc1OC(F)(F)F)N1CCC2(CCc3ccc([C@H](C4CC4)[C@H](C)C(=O)O)cc3O2)CC1 (stereo partly drawn) [Example 123, (2S,3R)-3-(1′-(1-(5-cyano-2-(trifluoromethoxy)phenyl)ethyl)spiro[chroman-2,4′-piperidin]-7-yl)-3-cyclopropyl-2-methylpropanoic Acid]
19 | 15.6 | COc1cc(C(C)N2CCC3(CCc4ccc([C@H](C5CC5)[C@H](C)C(=O)O)cc4O3)CC2)c(C(F)(F)F)cn1 (single isomer, unassigned) [Example 106, sodium (2S,3R)-3-cyclo-propyl-3-(1′-((R or S)-1-(2-methoxy-5-(trifluoro-methyl)pyridin-4-yl)ethyl)spiro[chroman-2,4′-piperidin]-7-yl)-2-methylpropanoate]
20 | 14.1 | C[C@H](C(=O)O)[C@H](c1ccc2c(c1)OC1(CCCN([C@@H](C)c3cc(C(F)(F)F)ccc3C(F)(F)F)CC1)CC2)C1CC1 (single isomer, unassigned) [Example 51, (2S,3R)-3-((R or S)-1-((S)-1-(2,5-bis (trifluoromethyl)phenyl)ethyl)spiro[azepane-4,2′-chroman]-7′-yl)-3-cyclopropyl-2-methylpropanoic acid]
21 | 11.7 | C[C@H](C(=O)O)[C@H](c1ccc2c(c1)OC1(CC2)CCN(Cc2cc(C3CC3)ccc2OC(F)(F)F)CC1)C1CC1 [Example 76, (2S,3R)-3-cyclopropyl-3-(1′-(5-cyclopropyl-2-(trifluoromethoxy)benzyl)spiro[chroman-2,4′-piperidin]-7-yl)-2-methylpropanoic Acid]
22 | 5.71 | C[C@H](C(=O)O)[C@H](c1ccc2c(c1)OC1(CC2)CC(N[C@H](C)c2cc(C(F)(F)F)ccc2C(F)(F)F)C1)C1CC1 (stereo partly drawn) [Example 93, (2S,3R)-3-(3′-(((R)-1-(2,5-bis(trifluoro-methyl)phenyl)ethyl)a-mino)spiro[chroman-2,1′-cyclo-butan]-7-yl)-3-cyclopropyl-2-methylpropanic acid]
23 | 4.78 | C[C@H](C(=O)O)[C@H](c1ccc2c(c1)OC1(CC2)CCN(c2cccc3c2c(C(F)(F)F)nn3C)CC1)C1CC1 [Example 36, (2S,3R)-3-cyclopropyl-2-methyl-3-(1′-(1-methyl-3-(trifluoromethyl)-1H-indazol-4-yl)spiro[chroman-2,4′-piperidin]-7-yl)propanoic Acid]
24 | 2.66 | C[C@H](C(=O)O)[C@H](c1ccc2c(c1)OC1(CCCN([C@@H](C)c3cc(C(F)(F)F)ccc3C(F)(F)F)CC1)CC2)C1CC1 (single isomer, unassigned) [Example 52, (2S,3R)-3-((S or R)-1-((S)-1-(2,5-bis (trifluoromethyl)phenyl)ethyl)spiro[azepane-4,2′-chroman]-7′-yl)-3-cyclopropyl-2-methylpropanoic acid]
25 | 1.4 | CC(c1cc(Cl)ccc1OC(F)(F)F)N1CCC2(CCc3ccc([C@H](C4CC4)[C@H](C)C(=O)O)cc3O2)CC1 (stereo partly drawn) [Example 134, Sodium (2S,3R)-3-(1′-(1-(5-chloro-2-(trifluoromethoxy)phenyl)ethyl)spiro[chromane-2,4′-piperidin]-7-yl)-3-cyclopropyl-2-methylpropanoate]
26 | 0.434 | CC(c1cc(C(F)(F)F)ccc1C1CC1)N1CCC2(CCc3ccc([C@H](C4CC4)[C@H](C)C(=O)O)c(F)c3O2)CC1 (single isomer, unassigned) [Example 11, sodium (2S,3R)-3-cyclopropyl-3-(1′-((R or S)-1-(2-cyclopropyl-5-(trifluoromethyl)-phenyl)ethyl)-8-fluorospiro[chroman-2,4′-piperidin]-7-yl)-2-methylpropanoate]
